Assay results: publication PMC6934184, “Selective DNA-PKcs inhibition extends the therapeutic index of localized radiotherapy and chemotherapy” (The Journal of Clinical Investigation, 2019)

Target: T1, ALK R1275Q (Homo sapiens, UniProt Q9UM73, R1275Q)
T1 construct: purchased Thermo Fisher Scientific (Life Technologies) SelectScreen
Test: SelectScreen LanthaScreen
Assay type: binding
Conditions: read-out: % displacement
In short: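 SelectScreen broad panel; activity (Z'LYTE, Adapta) plus binding formats. ATP: Km app for CSF1R Z'LYTE; 10 for CAMK1 Adapta. Readout = % per kinase.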

T1 sequence (Q9UM73 19-1620 R1275Q): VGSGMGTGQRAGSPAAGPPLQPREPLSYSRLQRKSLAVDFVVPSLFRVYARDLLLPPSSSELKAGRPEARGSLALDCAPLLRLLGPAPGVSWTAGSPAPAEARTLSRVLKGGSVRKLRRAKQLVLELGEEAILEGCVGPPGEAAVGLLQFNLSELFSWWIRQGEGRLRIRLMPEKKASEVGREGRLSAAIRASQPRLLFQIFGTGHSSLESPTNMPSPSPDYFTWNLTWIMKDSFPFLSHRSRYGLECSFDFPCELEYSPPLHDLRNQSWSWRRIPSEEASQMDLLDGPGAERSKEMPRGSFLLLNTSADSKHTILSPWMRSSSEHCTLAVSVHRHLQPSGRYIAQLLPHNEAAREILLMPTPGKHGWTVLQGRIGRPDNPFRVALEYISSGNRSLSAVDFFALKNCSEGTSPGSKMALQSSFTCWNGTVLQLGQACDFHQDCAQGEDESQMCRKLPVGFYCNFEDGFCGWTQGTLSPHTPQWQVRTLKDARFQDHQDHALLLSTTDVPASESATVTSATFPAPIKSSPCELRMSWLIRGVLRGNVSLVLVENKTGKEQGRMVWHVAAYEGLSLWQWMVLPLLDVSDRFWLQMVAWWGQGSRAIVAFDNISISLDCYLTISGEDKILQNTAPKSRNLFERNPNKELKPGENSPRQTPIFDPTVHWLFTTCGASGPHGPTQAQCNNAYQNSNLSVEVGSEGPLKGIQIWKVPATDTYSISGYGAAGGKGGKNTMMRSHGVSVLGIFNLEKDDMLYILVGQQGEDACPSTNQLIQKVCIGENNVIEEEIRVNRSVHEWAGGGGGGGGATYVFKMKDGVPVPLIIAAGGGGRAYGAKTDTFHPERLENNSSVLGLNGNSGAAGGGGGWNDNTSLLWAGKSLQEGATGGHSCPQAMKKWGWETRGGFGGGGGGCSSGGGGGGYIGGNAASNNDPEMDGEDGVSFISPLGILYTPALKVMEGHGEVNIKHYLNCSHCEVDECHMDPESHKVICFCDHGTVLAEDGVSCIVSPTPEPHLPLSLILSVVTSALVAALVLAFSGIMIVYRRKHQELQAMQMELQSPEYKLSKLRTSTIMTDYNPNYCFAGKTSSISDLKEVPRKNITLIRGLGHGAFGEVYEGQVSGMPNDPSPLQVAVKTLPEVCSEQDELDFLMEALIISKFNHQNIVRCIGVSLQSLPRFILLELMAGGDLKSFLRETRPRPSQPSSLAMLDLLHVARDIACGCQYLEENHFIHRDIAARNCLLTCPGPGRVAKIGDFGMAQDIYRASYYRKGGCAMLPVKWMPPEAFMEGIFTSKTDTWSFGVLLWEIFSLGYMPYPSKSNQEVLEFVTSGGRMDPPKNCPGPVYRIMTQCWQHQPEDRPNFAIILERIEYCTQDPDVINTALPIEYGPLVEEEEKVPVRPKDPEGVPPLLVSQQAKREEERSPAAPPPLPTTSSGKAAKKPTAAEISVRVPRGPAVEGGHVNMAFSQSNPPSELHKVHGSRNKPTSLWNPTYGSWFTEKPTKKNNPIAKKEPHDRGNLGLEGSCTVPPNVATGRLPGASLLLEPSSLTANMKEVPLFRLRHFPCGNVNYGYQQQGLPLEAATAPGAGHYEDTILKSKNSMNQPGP

CN(C(=O)CN1CCOCC1)c1ccc2sc3c(-c4cccc5c(=O)cc(N6CC7CCC(C6)O7)oc45)cccc3c2c1 [NU5455]
inhibition at 1 µM: 2%
